Source: patent publication US20220089646A1 (THE UNIVERSITY OF QUEENSLAND, priority 2019, published 2022)
*1 amine or outer side, *2 acyl side, *3 side chain or, on linkers, in order; H or OH if unused. Where a SMILES comes first, the peptide text is derived from it. Bridges are numbered along the chain shown (N, C = ends). [ ]: non-standard residue; d: D form. NHCH2CMe2S = CC(C)(CN[*:1])S[*:2]

How the values were obtained:
[1] = target: KOP (Homo sapiens, UniProt P41145); assay: Inhibition of Forskolin-induced cAMP production in HEK-KOP cells (AlphaScreen, DP series); format: cell-based; conditions: for IC80: approximate IC80, 'EC anything' protocol; for cAMP response, HEK-KOP: concentration-response curve, % cAMP
Chain of KOP (P41145 whole entry): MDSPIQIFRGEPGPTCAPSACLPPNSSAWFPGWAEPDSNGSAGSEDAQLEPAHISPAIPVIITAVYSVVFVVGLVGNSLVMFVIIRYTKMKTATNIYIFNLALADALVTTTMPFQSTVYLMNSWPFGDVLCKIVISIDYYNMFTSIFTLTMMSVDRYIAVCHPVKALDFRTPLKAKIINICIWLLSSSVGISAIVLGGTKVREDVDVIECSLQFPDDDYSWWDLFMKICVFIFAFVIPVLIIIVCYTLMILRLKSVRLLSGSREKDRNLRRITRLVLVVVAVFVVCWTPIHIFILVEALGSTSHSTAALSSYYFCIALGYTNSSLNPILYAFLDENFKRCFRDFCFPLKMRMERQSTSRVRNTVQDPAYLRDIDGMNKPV
Description: DP-7-11 and DP-7-12 were assessed for the ability to inhibit cAMP production in HEK-DOP and HEK KOP cells.
The HEK-293 DOP (HEK-DOP) and HEK-293 KOP (HEK-KOP) cell lines were cultured in a T75 flask, in Dulbeco's Modified Eagle's Medium (DMEM) complete with 10% (v/v) fetal bovine serum (FBS) and 1% (v/v) Geneticin. Cells were incubated in a humidified atmosphere of 37° C. (95% air and 5% CO2). Cells were passaged at 80-90% confluence and media was changed every two days.
Stimulation buffer and Lysis buffer were prepared fresh on the day of each assay. Stimulation buffer contained 19.5 mL Hanks buffered saline solution, Bovine serum albumin (BSA) 0.1% (w/v), 0.5 mM 3-Isobutyl-1-methylxanthine (IBMX) and 5 mM HEPES (4-(2-hydroxyethyl)-1-piperazineethanesulfonic acid). Lysis buffer contained 19 mL Mili-Q H2O, BSA 0.1% (w/v), 0.3% (v/v) 10% Tween-20, and 5 mM HEPES. Both buffers were adjusted to pH 7.4 with NaOH.
The cAMP standard dilution series was prepared from the 50 μM cAMP standard solution provided by the cAMP assay kit. The standard solution was vortexed before being serially diluted to provide a concentration range of 5×10^−6 M to 5×10^−11 M in ½ Log intervals.
For this assay, Forskolin was optimised at 50 μM/well. 25 mM stocks were used to prepare 0.2 mM Forskolin. The concentration of Forskolin prepared was 4 times the required concentration in the well to account for further dilution in the well. 0.1 mM Forskolin solution was then made from this and used to dilute the peptide solutions.
DP-7-11 and DP-7-12 provided in powder form and reconstituted to 10 mM stock solutions and diluted to 1 mM working stocks using Mili-Q H2O. Each peptide solution was serially diluted to give concentrations of 1×10^−6 to 3×10^−7 M with stimulation buffer.
Stimulation buffer was added to the 0.2 mM Forskolin solution in a 1:1 ratio to prepare the Forskolin only treatment solution. This was the positive control. Stimulation buffer was used as the negative control.
Cells were harvested from two T75 flasks on the day of experimentation. Identical protocol was used for both DOP and KOP cells. The cells were first removed from the incubator and washed with Versene®. The cells were then incubated in 2 mL of Versene® at 37° C. for 5 minutes. Following this, the mixture was made up to 5 mL with Versene® in a centrifuge tube. This was centrifuged at 1300 rpm for 2 minutes at 23° C. The supernatant was then decanted and the cells resuspended in 100 μL stimulation buffer for counting. A hemocytometer was used to count the cells. This assay required the concentration of cells to be 13300 cells/μL
This method was used to conduct all cAMP Alphascreen assays. The acceptor bead mixture consisted of acceptor beads and stimulation buffer mixed according to the ratio 1:35 given in the kit. From this, the acceptor beads mixture was used to prepare separate mixtures for the cAMP standard curve and for the treatment wells of the assay. For the treatment wells, the beads were mixed with cells in a 1:1 ratio. For the cAMP standard curve, the beads were mixed with more stimulation buffer in a 1:1 ratio. The donor bead mixture consisted of donor beads, biotinylated cAMP and lysis buffer mixed in the ratio 1:3:300.
The DP series compounds were assayed as follows: The assay was performed using a 96 well ½ area plate. The different cAMP standard solutions (3 μL/well) were plated in duplicate. The different concentrations of drug (3 μL/well), and control solutions (3 μL/well) were plated in triplicate. […]

[2] = target: T1, trypsin (Bos taurus, UniProt P00760); assay: Trypsin stability; format: in vitro ADME
T1 sequence (P00760 24-246): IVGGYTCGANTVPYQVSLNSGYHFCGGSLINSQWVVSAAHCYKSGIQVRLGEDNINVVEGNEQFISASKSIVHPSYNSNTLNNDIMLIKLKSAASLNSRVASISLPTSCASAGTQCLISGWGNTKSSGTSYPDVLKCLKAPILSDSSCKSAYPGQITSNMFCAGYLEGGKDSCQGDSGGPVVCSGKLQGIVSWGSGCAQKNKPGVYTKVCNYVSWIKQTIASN
Description: Purified DP-7-11 (1 mg/mL) was dissolved in 0.1 M ammonium bicarbonate (NH4HCO3) buffer. To prepare a stock trypsin solution, 1 mg trypsin was dissolved in 50 mL of 0.1 M NH4HCO3 buffer. Equal volumes of the stock trypsin solution (62.5 μL) and DP-7-11 solution (62.5 μL) were incubated in 375 μL of 0.1M NH4HCO3 buffer in a 37° C. water bath. Aliquots of 100 μL were collected from this mixture at set time intervals of 0 min, up to 24 hours. Ice-cold acetonitrile containing 0.5% TFA was used to quench the reaction between DP-7-11 and trypsin at predetermined intervals, and just prior to HPLC or LC-MS analysis. The quenched samples were vortexed for 10 minutes followed by centrifugation at 12,000 rpm for a further 15 minutes. Supernatant was sampled and analysed using analytical RP-HPLC or LC-MS. Samples without trypsin acted as negative controls and were sampled at two intervals of 0 hour and 6 hours.
As used in this serum and trypsin stability discussion, the term ‘degraded completely’ relates to the relevant compound being completely absent when tested. In other words, the compound being tested is not observed when tested.
The serum and trypsin stability of DP-7-11 and DP-7-12 were tested (in some instances again) using LC-MS. The LC-MS utilized in this study was more sensitive than the LC-MS utilized in the above tests.

## CC1(C)CNC(=O)C[C@H](C(=O)N[C@@H](CCCNC(=N)N)C(=O)N[C@@H](CCCNC(=N)N)C(N)=O)NC(=O)[C@H](Cc2ccccc2)NC(=O)CNC(=O)[C@@H](NC(=O)[C@@H](N)Cc2ccc(O)cc2)CSS1 [DP-7-11, c(Tyr-SSa-Gly-Phe-D(Asp)-Arg-Arg)]
[1]; Forskolin 50 μM/well, 95% CI in brackets
  IC50: 5.06 nM
[1]
  IC80: 30 nM
  cAMP response, HEK-KOP: 13.73%
[2]; at 30 min, more sensitive LC-MS
  Incubation in trypsin: peptide remaining: 25% remaining at
[2]; trypsin solution, at 30 min, more sensitive LC-MS, read-out: Incubation in trypsin: peptide remaining
  remaining at 0.5 h, 0.125 mg/mL: ~25%

## CC1(C)CNC(=O)C[C@@H](NC(=O)[C@@H](N)Cc2ccc(O)cc2)C(=O)NCC(=O)N[C@@H](Cc2ccccc2)C(=O)N[C@H](C(=O)N[C@@H](CCCNC(=N)N)C(=O)N[C@@H](CCCNC(=N)N)C(N)=O)CSS1 [DP-7-12, c(Tyr-D(Asp)-Gly-Phe-SSa-Arg-Arg)] (H-Y[dD]GFCRR-NH2; linker 2-5 via NHCH2CMe2S)
[1]
  IC80: 28.8 nM
  cAMP response, HEK-KOP: 25.88%
[2]; 37° C.
  Trypsin: complete degradation within: within 30 min
